Tests used:
[1] = target: T1, human muscarinic receptor M5 (Homo sapiens, UniProt P08912); test: Muscarinic M5 receptor binding, [3H]4-DAMP; conditions: read-out: Affinity for Muscarinic Receptors, M5, Ki
T1 construct: expressed in transfected cells; host or cells: CHO cells (membranes)
T1 sequence (P08912 1-532): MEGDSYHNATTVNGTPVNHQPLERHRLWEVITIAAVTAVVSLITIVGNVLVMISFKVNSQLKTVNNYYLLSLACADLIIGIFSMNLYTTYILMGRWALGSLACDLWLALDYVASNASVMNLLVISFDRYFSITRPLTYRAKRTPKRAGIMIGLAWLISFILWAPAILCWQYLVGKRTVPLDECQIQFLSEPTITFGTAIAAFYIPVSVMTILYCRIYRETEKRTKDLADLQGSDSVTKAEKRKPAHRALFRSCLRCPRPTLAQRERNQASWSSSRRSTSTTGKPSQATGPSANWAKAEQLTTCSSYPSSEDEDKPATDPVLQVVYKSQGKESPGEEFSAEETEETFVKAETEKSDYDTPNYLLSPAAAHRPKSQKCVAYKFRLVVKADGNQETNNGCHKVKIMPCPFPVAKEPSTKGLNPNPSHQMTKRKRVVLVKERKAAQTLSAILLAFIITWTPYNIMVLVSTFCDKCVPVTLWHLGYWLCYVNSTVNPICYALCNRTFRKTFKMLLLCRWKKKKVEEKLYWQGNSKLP
Method: Protocol. The affinities of AT, NT (+)-E-10-OH-NT and (−)-E-10-OH-NT for muscarinic receptors M1, M2, M3, M4 and M5 were determined with membranes prepared from CHO cells heterologously expressing the cloned human muscarinic receptors M1, M2, M3, M4 and M5. For the assays, membranes and radiolabelled ligand were incubated with various concentrations of test compounds for 1 hour at 22° C. Bound radioactivity was determined by scintillation spectroscopy. Non-specific binding was defined as the amount of bound radioligand in the presence of 1.0 μM atropine. Radioligand for the M1 receptor was [^3H]pirenzepine (2 nM). Radioligand for the M2 receptor was [^3H]AF-DX384 (2 nM). Radioligand for the M3, M4, and M5 receptors was [^3H]4-DAMP.

[2] = target: T2, human dopamine transporter (hDAT) (Homo sapiens, UniProt Q01959); test: DA transporter competitive binding assay, [3H]BTCP; conditions: for Ki: read-out: Monoamine Transporter Affinity, DA, Ki; for inhibition at 10 µM: read-out: Monoamine Transporter Affinity, DA, % inhib at 10 μM
T2 construct: expressed in transfected cells; host or cells: CHO cells (membranes)
T2 sequence (Q01959 whole entry): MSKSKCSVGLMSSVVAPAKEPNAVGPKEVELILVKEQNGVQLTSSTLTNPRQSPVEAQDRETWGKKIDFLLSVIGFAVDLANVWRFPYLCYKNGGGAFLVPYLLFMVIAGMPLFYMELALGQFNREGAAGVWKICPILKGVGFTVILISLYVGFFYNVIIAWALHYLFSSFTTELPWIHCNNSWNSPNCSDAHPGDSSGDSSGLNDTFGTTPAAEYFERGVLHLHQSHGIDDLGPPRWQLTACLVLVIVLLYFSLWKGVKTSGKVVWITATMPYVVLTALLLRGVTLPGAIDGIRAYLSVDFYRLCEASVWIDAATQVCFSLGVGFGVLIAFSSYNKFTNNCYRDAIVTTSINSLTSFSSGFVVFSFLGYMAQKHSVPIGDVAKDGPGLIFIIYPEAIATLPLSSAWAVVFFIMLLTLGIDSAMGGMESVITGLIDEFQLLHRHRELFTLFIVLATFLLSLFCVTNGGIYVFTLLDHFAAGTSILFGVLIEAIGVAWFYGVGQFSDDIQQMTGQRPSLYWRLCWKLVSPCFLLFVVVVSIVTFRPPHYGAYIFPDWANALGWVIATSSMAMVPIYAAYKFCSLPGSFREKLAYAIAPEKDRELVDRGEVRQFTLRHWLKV
Method: For the DA transporter binding assay, [^3H]N-[1-(2-benzo[b]thiophenyl)cyclohexyl]-piperidine ([^3H]BTCP) (4.0 nM) was incubated for 2 hr at 4° C. with membranes prepared from Chinese hamster ovary (CHO) cells heterologously expressing the cloned human dopamine transporter (hDAT). Various concentrations of test compound were added and bound radioactivity was determined by scintillation spectroscopy. Non-specific binding was defined as binding that occurred in the presence of 10 μM BTCP. The Ki values for the various test compounds were determined using standard methods.

[3] = tested on: Sprague-Dawley rats, forced swim behaviour; test: Rat Forced Swim Test of depression; format: in vivo; conditions: for amount of time spent climbing: 3-30 mg/kg IP
Excerpt: Protocol: Male Sprague-Dawley rats (approximately 200 g) are placed in a tank of room temperature water for a fifteen minute practice swim. Every five seconds during the first five minutes of the practice swim, the rats are rated as immobile (floating with motion needed to keep head above the water), swimming (movement across the swim), or climbing (actively trying to climb out of the tank of water, upward directed movements of the forepaws). The percentage of time the rats spent in each of these responses is calculated.
Approximately 24 h after the practice swim, the rats are treated with vehicle or test compound and placed in the tank for a 5 minute swim. As was the case with the practice swim, the rats are rated as immobile, swimming, or climbing during the test swim and the percentage of time spent in each of these responses is calculated. The data are analyzed by one-way ANOVA with post-hoc analysis to compare the behavioral response after vehicle treatment to the behavioral response after drug treatment for each of the three behavioral responses. The level of significance is set at p<0.05.
The percent of time spent immobile, swimming, and climbing (actively trying to scale the sides of the swim tank) in the test swim is shown in FIGS. 15 A, B, and C.

α2a adrenergic receptor = target: T3, α2a adrenergic receptor (Homo sapiens, UniProt P08913); test: α2a adrenergic receptor binding, [3H]RX821002; conditions: for inhibition at 10 µM: read-out: α2a adrenergic receptor, % inhib. at 10 μM
T3 construct: expressed in transfected cells; host or cells: CHO cells
T3 sequence (P08913 1-465): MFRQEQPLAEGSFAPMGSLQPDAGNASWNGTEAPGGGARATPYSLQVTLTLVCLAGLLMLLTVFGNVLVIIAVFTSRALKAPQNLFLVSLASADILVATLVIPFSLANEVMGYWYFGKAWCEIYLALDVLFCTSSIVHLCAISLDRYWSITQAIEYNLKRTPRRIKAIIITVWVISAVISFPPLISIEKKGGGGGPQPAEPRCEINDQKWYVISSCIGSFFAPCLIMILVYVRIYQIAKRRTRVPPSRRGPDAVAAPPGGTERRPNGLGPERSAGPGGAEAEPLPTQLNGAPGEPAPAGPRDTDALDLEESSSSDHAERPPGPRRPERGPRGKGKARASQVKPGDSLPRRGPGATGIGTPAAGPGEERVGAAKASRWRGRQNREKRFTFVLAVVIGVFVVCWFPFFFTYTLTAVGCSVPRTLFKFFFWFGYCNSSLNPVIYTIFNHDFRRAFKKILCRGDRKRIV
Method: Affinity for the α2a adrenergic receptor was tested using CHO cells heterologously expressing the cloned human receptor that were incubated with [^3H]RX821002 (1.0 nM) in the presence of various concentrations of test compounds for 1 hour at 22° C. Nonspecific binding was determined in the presence of 100 μM (−)-epinephrine. Bound radioactivity was determined by scintillation spectroscopy.

In the case of `CNCCC=C1c2ccccc2CCc2ccccc21` [NT, nortriptyline, reference compound], the Ki [1] is reported as 0.015 µM.
`CN(C)CCC=C1c2ccccc2CCc2ccccc21` [AT, amitriptyline, reference compound] was tested, and the Ki [2] was 2.1 µM, the “increase in time spent swimming” value ([3]; 10 mg/kg IP) was 81% and the “increase in time spent swimming” value ([3]; 30 mg/kg IP) was 147%. The “amount of time spent climbing” value [3] was “did not alter the amount of time spent climbing”, the Ki [1] was 0.0035 µM and the Ki (α2a adrenergic receptor; read-out: Affinity at α2a adrenergic receptor, Ki) was 0.57 µM.
`CNCC/C=C1\c2ccccc2C[C@H](O)c2ccccc21` (stereo in doubt) [(+)-E-10-OH-NT] was tested, and the inhibition at 10 µM [2] was 25%, the Ki [2] was > 1 µM and the “activity in the forced swim test” value ([3]; doses up to 30 mg/kg IP) was “not active”. The Ki [1] was 0.28 µM and the inhibition at 10 µM (α2a adrenergic receptor) was 15%.
`CNCC/C=C1\c2ccccc2C[C@@H](O)c2ccccc21` (stereo in doubt) [(−)-E-10-OH-NT] was tested, and the inhibition at 10 µM [2] was 3%, the Ki [2] was > 1 µM and the “increase in time spent swimming” value ([3]; 10 mg/kg IP) was 64%. For the same molecule, the “increase in time spent swimming” value ([3]; 30 mg/kg IP) was 108%, the “amount of time spent climbing” value [3] was “did not alter the amount of time spent climbing” and the Ki [1] was 0.15 µM. The inhibition at 10 µM (α2a adrenergic receptor) was 23%.
